From article PMC8072580, “Predicting Pharmacokinetic Properties of Potential Anticancer Agents via Their Chromatographic Behavior on Different Reversed Phase Materials” (International Journal of Molecular Sciences, 2021)
Read-outs that look alike come from different tables or passages of the source.

Legend:
[1] = parameters: method as in PMID 31864156; settings: IAM.PC.DD2 column, buffered acetonitrile; cited from earlier work
[2] = parameters: method as in PMID 31864156; settings: end-capped ODS column, aqueous acetonitrile; cited from earlier work
[3] = Micellar liquid chromatography (MLC), ODS-2 column, Brij 35 effluent: chromatographic lipophilicity; type: physicochemical; settings: pH 7.4, ODS-2 column, 25 °C
Source text: There are several theories that describe the effect of the concentration of the surfactant in the effluent on the retention of the solute in MLC [23]. The following Foley’s equation is best known in lipophilicity studies:(2) 1/k=1/km+KAM/km[M] where [M] is the total concentration of the surfactant in the mobile phase minus CMC; KAM is the constant that describes solute-micelle binding; and km is the solute retention parameter at the micellar concentration of zero, i.e., when the concentration of the surfactant monomer is equal to CMC. The KAM and km parameters can be evaluated from the slope and intercept of the experimental 1/k vs. [M] relationships.
Equation (2) describes a linear dependence between decreasing retention and increasing micelle concentration. This equation is valid for aqueous solutions of surfactant or mobile phases with the same concentrations of the organic modifier. The micellar retention parameter, log km, is considered analogous to the log kw parameter evaluated in RPLC. According to the information presented above, this parameter is considered to be a lipophilicity descriptor, and Equation (2) is a simple way to indirectly determine the lipophilic properties of compounds. It is postulated that retention in micellar chromatography depends on hydrophobic (lipophilic), electronic, and steric features of the compounds in a similar way as has been noted concerning pharmacokinetic phenomena. The additional similarity results from the fact that the phospholipids, cholesterol, fatty acids, and triglycerides included in the extracellular and intracellular fluids also form micelles with proteins.
(§1) In our investigations, the micellar retention factors were used to calculate the log km parameters using Equation (2) (Table 2). For all of the compounds 1-19, the relationships of 1/k vs. [M] were obtained with very good linearity, confirming that Foley’s equation correctly describes the effect of the concentration of the surfactant in the effluent on the retention of the solute. In our studies, the micellar log km parameters for three pharmacologically active sets of compounds 1-6, 7-14, and 15-19 and the log k factors for solutes 15-19 obtained on IAM and end-capped ODS stationary phases were determined experimentally. All these retention factors, together with the log kw values for compounds 1-14 obtained in our earlier investigations on IAM and end-capped ODS stationary phases, were used as lipophilicity descriptors in the QSARs methodology to predict the pharmacokinetic descriptors of the compounds that were tested.
(§2) Shimadzu Vp (Shimadzu, Izabelin, Polska) liquid chromatographic system was used in HPLC measurements. It was equipped with an LC 10AT pump, SPD 10A UV–Vis detector, SCL 10A system controller, CTO-10 AS chromatographic oven, and Rheodyne injector valve with a 20 μL loop. As the stationary phases, 3 different revered-phase materials were applied: Spherisorb ODS-2 column, 125 × 4 mm i.d., 5 μm (Merck, Lublin, Poland), Regis IAM.PC.DD2 column, 100 × 4.6 mm i.d., 10 μm (Morton Grove, Illinois, USA), and Purosphere RP-18e column, 125 × 4 mm i.d., 5 μm (Merck, Lublin, Poland).
In the MLC technique with an ODS-2 column, buffered Brij 35 mixtures (0.15; 0.125, 0.10, and 0.075 mol/L) with 7% (v/v) addition of isopropanol were used as mobile phases. The buffer was prepared from 0.01 mol/L solutions of Na2HPO4 and citric acid, and the pH 7.4 value was fixed before mixing with an organic modifier. The flow rate was 1 mL/min. Buffered acetonitrile mixtures were used as effluents with the IAM column. Acetonitrile concentration, expressed as a volume fraction, was changed in the range of 0.2–0.5, with the constant step of 0.1. The flow rate was 1.3 mL/min. Acetonitrile concentration was changed in the range of 0.3–0.6 with the RP-18e column, with the constant step of 0.1 and flow rate of 0.1 mL/min. As solutes tested there were used 19 newly designed structurally related compounds. […]

Danio rerio = system: Danio rerio; parameters: method as in PMID 33390035; settings: cited from earlier work
human cancer cells = system: human cancer cells; parameters: method as in PMID 31864156, PMID 16545495, PMID 25528370; settings: cited from earlier work
[4] = End-capped ODS (RP-18e) column chromatography: log kw,ODS; type: physicochemical; settings: acetonitrile 0.3-0.6, 25 °C
Source text: as §1, §2
(§3) In the MLC technique with an ODS-2 column, buffered Brij 35 mixtures (0.15; 0.125, 0.10, and 0.075 mol/L) with 7% (v/v) addition of isopropanol were used as mobile phases. The buffer was prepared from 0.01 mol/L solutions of Na2HPO4 and citric acid, and the pH 7.4 value was fixed before mixing with an organic modifier. The flow rate was 1 mL/min. Buffered acetonitrile mixtures were used as effluents with the IAM column. Acetonitrile concentration, expressed as a volume fraction, was changed in the range of 0.2–0.5, with the constant step of 0.1. The flow rate was 1.3 mL/min. Acetonitrile concentration was changed in the range of 0.3–0.6 with the RP-18e column, with the constant step of 0.1 and flow rate of 0.1 mL/min. As solutes tested there were used 19 newly designed structurally related compounds. Samples were dissolved in acetonitrile c.a. 0.005 mg/mL. The compounds were detected under UV light at λmax 254 nm. All measurements were carried out at a constant temperature (25 °C). The dead time values were measured from non-retained compound (e.g., sodium chloride) peaks. All reported k values are the average of at least 3 independent measurements.

[5] = Immobilized artificial membrane (IAM.PC.DD2) chromatography: log kw,IAM; type: physicochemical; settings: IAM.PC.DD2 column, buffered acetonitrile 0.2-0.5, 25 °C
Source text: as §1, §2, §3

[6] = 0.075 M Brij 35, 7% isopropanol
[7] = 0.125 M Brij 35, 7% isopropanol

Structure (SMILES) | log kw,IAM [1] | log kw,ODS [2] | k (MLC retention factor) [3, 6] | k (MLC retention factor) ([3]; 0.1 M Brij 35, 7% isopropanol) | k (MLC retention factor) [3, 7] | k (MLC retention factor) ([3]; 0.15 M Brij 35, 7% isopropanol) | safety for early life stages of Danio rerio compared with pemetrexed (Danio rerio) | antiproliferative effects in cancer cells compared with normal cells (human cancer cells) | log kw,ODS [4] | log kw,IAM [5]
CC(C)c1nnc2n(c1=O)CCN2c1ccccc1 [Compound 1] | 0.76 [19] | 1.59 [19] | 13.73 | 12.03 | 10.47 | 10.53 |  |  |  | 
Cc1ccc(N2CCn3c2nnc(C(C)C)c3=O)cc1 [Compound 2] | 1.05 [19] | 2.01 [19] | 25.51 | 21.45 | 18.25 | 17.34 |  |  |  | 
CC(C)c1nnc2n(c1=O)CCN2c1ccccc1Cl [Compound 3] | 0.65 [19] | 1.42 [19] | 8.98 | 8.18 | 7.46 | 7.20 |  |  |  | 
CC(C)c1nnc2n(c1=O)CCN2c1cccc(Cl)c1 [Compound 4] | 1.49 [19] | 2.38 [19] | 39.84 | 31.65 | 24.39 | 22.52 |  |  |  | 
CC(C)c1nnc2n(c1=O)CCN2c1ccc(Cl)cc1 [Compound 5] | 1.39 [19] | 2.32 [19] | 41.53 | 33.76 | 26.18 | 24.10 |  |  |  | 
CC(C)c1nnc2n(c1=O)CCN2c1ccc(Cl)c(Cl)c1 [Compound 6] | 1.67 [19] | 2.68 [19] | 60.81 | 46.76 | 34.01 | 29.82 |  |  |  | 
O=c1c(C(F)(F)F)nnc2n1CCN2c1ccccc1 [Compound 7] | 0.94 [19] | 1.92 [19] | 14.11 | 12.22 | 10.72 | 10.02 | safer for the early life stages of Danio rerio than pemetrexed |  |  | 
Cc1ccc(N2CCn3c2nnc(C(F)(F)F)c3=O)cc1 [Compound 9] | 1.25 [19] | 2.16 [19] | 25.67 | 21.44 | 17.64 | 16.14 |  |  |  | 
COc1ccccc1N1CCn2c1nnc(C(F)(F)F)c2=O [Compound 10] | 0.67 [19] | 1.65 [19] | 5.89 | 5.40 | 5.04 | 4.79 |  | clearly higher antiproliferative effects in cancer cells than in normal cells |  | 
O=c1c(C(F)(F)F)nnc2n1CCN2c1ccccc1Cl [Compound 11] | 0.88 [19] | 1.86 [19] | 10.61 | 9.36 | 8.27 | 7.66 |  | clearly higher antiproliferative effects in cancer cells than in normal cells |  | 
O=c1c(C(F)(F)F)nnc2n1CCN2c1cccc(Cl)c1 [Compound 12] | 1.66 [19] | 2.43 [19] | 36.90 | 29.09 | 22.17 | 19.83 |  |  |  | 
O=c1c(C(F)(F)F)nnc2n1CCN2c1ccc(Cl)cc1 [Compound 13] | 1.58 [19] | 2.40 [19] | 41.71 | 32.28 | 25.32 | 22.45 |  |  |  | 
O=c1c(C(F)(F)F)nnc2n1CCN2c1ccc(Cl)c(Cl)c1 [Compound 14] | 2.29 [19] | 2.96 [19] | 59.61 | 44.28 | 32.68 | 28.56 |  |  |  | 
CCOC(=O)c1nnc2n(c1=O)CCN2c1ccccc1 [Compound 15] |  |  | 2.09 | 1.90 | 1.81 | 1.84 |  |  | 1.21 | 0.48
CCOC(=O)c1nnc2n(c1=O)CCN2c1ccc(C)cc1 [Compound 16] |  |  | 4.49 | 4.04 | 3.81 | 3.75 |  |  | 2.80 | 1.93
CCOC(=O)c1nnc2n(c1=O)CCN2c1cccc(Cl)c1 [Compound 17] |  |  | 10.12 | 8.72 | 8.00 | 8.00 |  | clearly higher antiproliferative effects in cancer cells than in normal cells | 2.62 | 1.73
CCOC(=O)c1nnc2n(c1=O)CCN2c1ccc(Cl)cc1 [Compound 18] |  |  | 9.94 | 8.48 | 7.53 | 7.75 |  |  | 1.92 | 1.12
CCOC(=O)c1nnc2n(c1=O)CCN2c1ccc(Cl)c(Cl)c1 [Compound 19] |  |  | 24.39 | 18.98 | 14.97 | 14.81 |  | clearly higher antiproliferative effects in cancer cells than in normal cells | 3.24 | 3.36
